Here are results for three compounds from patent US20050209336A1, “EP2 receptor agonists” (priority 2003, published 2005).

Read-outs that look alike come from different tables or passages of the source.

The target in assay [1] is T1, human EP2 receptor (Homo sapiens, UniProt P43116).
T1 construct: expressed in transfected cells; host or cells: HEK cells (HEK-EP2)
The assay is described as follows: cAMP production in HEK cells stably expressing the human EP2 receptor. Conditions: 15 min stimulation, 4 experiments. In kind it is cell-based. On the procedure:
The following describes an in vitro assay to determine the effect of compounds on cyclase production, that is, to determine their functional efficacy at the EP2 receptor.
HEK cells stably expressing the human EP2 receptor were used for these assays. HEK-EP2 cells were cultured in 96-well, poly-L-lysine coated plates at a density of 50,000 cells/well, and grown to confluence in humidified […] at 37° C. Culture medium was DMEM supplemented with 10% foetal bovine serum, 100 U/ml penicillin, […], 2.5 µg/ml fungizone, 2 mM glutamine, 250 µg/ml geneticin and 200 µg/ml zeocin.
On reaching confluence, culture media was rinsed off using DMEM with no additions, before 175 µl assay buffer (DMEM containing 1 mM 3-isobutyl-1-methylxanthine and 3 µM indomethacin) was added to each well. This was allowed to incubate for 1 hr before the cells were stimulated with the test compounds (in triplicate) at final concentrations of 10^−9M to 10^−5M for 15 minutes. The assay was terminated by the addition of 25 µl 1M hydrochloric acid. Plates were then frozen for a minimum of 12 hours or until required for radioligand displacement assay.
Plates were thawed quickly at 37° C., and neutralised with 25 µl 1M sodium hydroxide. 30 µl of supernatant was transferred to 96-well Millipore (MAFNOB) plates coated with 0.1% Polyethylenimine. These supernatants were diluted by addition of 90[…]1 cAMP assay buffer (50 mM Tris, 5 mM EDTA, pH 7.0). A cAMP standard curve (10^−11M to 10^−5M) was constructed. 15 µl of 3′:5′-cAMP-dependent protein kinase (final concentration 8 µg/well), and 15 µl [^3H]-cAMP (final concentration 2 nM/well) were added to each well.
Plates were incubated on ice for 2 hours, before bound and free radiolabel were separated by vacuum filtration harvesting on the Millipore manifold, using ice cold water as the termination buffer. Filter plates were allowed to dry overnight, before addition of 50 µl Microscint. Radioactivity was determined using the Microbeta Trilux scintillation counter. cAMP accumulation was determined from the standard curve, and the values plotted as pmoles cAMP/well.
(Cyclic AMP is a second messenger, typically raised through Gs and lowered through Gi signalling.)

The target in another assay is T2, human EP3 receptor (Homo sapiens, UniProt P43115).
T2 construct: expressed in transfected cells
T2 sequence (P43115 1-390): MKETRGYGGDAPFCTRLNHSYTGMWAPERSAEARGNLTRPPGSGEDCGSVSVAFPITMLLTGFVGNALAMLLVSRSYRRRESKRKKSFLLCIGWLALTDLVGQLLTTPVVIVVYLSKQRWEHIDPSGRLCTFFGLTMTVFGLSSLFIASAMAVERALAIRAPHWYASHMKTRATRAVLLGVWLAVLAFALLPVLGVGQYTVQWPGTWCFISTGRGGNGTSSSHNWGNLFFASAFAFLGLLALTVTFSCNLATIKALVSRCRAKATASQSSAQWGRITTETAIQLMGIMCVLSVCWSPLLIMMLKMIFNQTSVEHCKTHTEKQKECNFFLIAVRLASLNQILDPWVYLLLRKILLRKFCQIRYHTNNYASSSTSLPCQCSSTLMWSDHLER
The assay can be described thus: Radioligand ([3H]PGE2) competition displacement binding, human EP3 receptor membranes. As to conditions: [3H]PGE2 displacement, read-out: pKi EP3 (converted). On the procedure: (§1) Membranes were prepared from cells stably transfected with human EP receptor cDNA. In brief, cells were cultured to confluency, scraped from culture flasks, and centrifuged (800 g, 8 minutes, 4° C.). Cells were twice washed in ice cold homogenisation buffer containing 10 mMTris-HCl, 1 mM EDTA.2Na, 250 mM sucrose, 1 mM PMSF, 0.3 mM indomethacin, pH 7.4, homogenised and re-centrifuged as before. The supernatant was stored on ice and pellets re-homogenised and re-spun. Supernatants were pooled and centrifuged at 40000 g, 10 minutes, 4° C. Resultant membrane pellets were stored at −80° C. until use.
(§2) For assay, membranes expressing human EP4, EP3, EP2 or EP1 receptors were incubated in Millipore (MHVBN45) plates containing assay buffer, radiolabelled [^3H]PGE2 and 0.1 to 10 000 nM concentrations of compounds. Incubations were performed at suitable temperatures and for suitable times to allow equilibrium to be reached. Non-specific binding was determined in the presence of 10 uM PGE2. Bound and free radiolabel was separated by vacuum manifold filtration using appropriate wash buffers, and bound radiolabel was determined by scintillation counting. Constituents of each of the buffers are included in table 4 below.
(§3) The affinity or pKi of each compound for each receptor was calculated from the concentration causing 50% radioligand displacement (IC50) using the Cheng-Prusoff equation: [formula]
(§4) This approach follows that set out in Kenakin, T. P., Pharmacologic analysis of drug receptor interaction. Raven Press, New York, 2nd edition.

The target of assay [2] is T1, human EP2 receptor. The assay can be described thus: Radioligand ([3H]PGE2) competition displacement binding, human EP2 receptor membranes. As to conditions: for Ki: human EP2 membranes, [3H]PGE2 displacement, Cheng-Prusoff, mean of 4 experiments, read-out: pKi EP2 (converted). As for the experimental part:
as §1, §2, §3, §4

The test system of assay [3] is TNFα production by LPS-stimulated monocytes. The assay can be described thus: Monocyte assay: LPS-induced TNFα secretion. It is filed as cell-based. Conditions: Homo sapiens, inhibition of TNFα production, LPS 100 ng/ml, 24 h, mean of three donors. The source says: Monocytes are peripheral mononuclear phagocytes that participate in inflammatory responses. TNFα production by monocytes plays an important role in inflammatory responses and can cause considerable tissue damage if the level remained unchecked. Inhibition of TNFα secretion by activated monocytes may provide an attractive therapy for the treatment of inflammatory conditions.
A 96 well in vitro assay was established to determine the effects of test compounds on LPS-induced TNFα secretion by human peripheral blood monocytes. The level of TNFα in assay supernatants was quantified using a standard sandwich ELISA.
Human peripheral blood mononuclear cells from healthy volunteers were isolated from whole blood by Ficoll-Hypaque density centrifugation and adherence to plastic. The non-adherent lymphocyte fraction was used to set up the lymphocyte assay and the adherent monocytes were then recovered by scraping and subsequently used in the monocyte assay.
For the monocyte assay, the cells were plated onto 96-well plates and pre-treated for 1 hour at 37° C./5% CO2 with the test compound (Peak 1, mixture 1 acid; Peak 1, mixture 2 acid; AH-13205 racemate), followed by the addition of LPS (100 ng/ml) to initiate the reaction. The plate was incubated for 24 hours and supernatants were recovered for the measurement of TNFα production by ELISA.

Where [4] appears, read: log scale, read-out: Mean Log (EC50) (converted).

T1 sequence (P43116 whole entry): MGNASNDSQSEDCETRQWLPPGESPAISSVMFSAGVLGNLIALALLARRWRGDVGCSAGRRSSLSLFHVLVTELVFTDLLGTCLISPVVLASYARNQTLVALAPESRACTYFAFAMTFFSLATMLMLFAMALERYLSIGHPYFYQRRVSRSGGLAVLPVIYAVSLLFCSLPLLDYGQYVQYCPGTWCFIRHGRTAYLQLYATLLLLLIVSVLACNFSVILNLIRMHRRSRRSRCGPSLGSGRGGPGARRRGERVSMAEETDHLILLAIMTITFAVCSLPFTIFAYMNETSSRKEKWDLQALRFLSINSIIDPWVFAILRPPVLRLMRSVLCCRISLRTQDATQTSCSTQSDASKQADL

Broadly, the EC50 is the concentration needed to bring the measured effect to its halfway point. For the compound `CCCCCC(O)c1ccc(C2CCC(=O)C2CCCCCCC(=O)O)cc1` (racemic) [AH13205, (±)-trans-2-[4-(1-hydroxyhexyl)phenyl]-5-oxo-cyclopentaneheptanoic acid, reference compound], the EC50 on human EP2 receptor [1] (setting [4]) was 0.0324 µM; in assay [3] (read-out: Mean EC50), 19.8 µM; in assay [3] (setting [4]), 19.8 µM. The Ki at human EP3 receptor is 6.31 µM; at human EP2 receptor [2], 0.398 µM.
Take `CCCCC[C@H](O)c1ccc([C@H]2CCC(=O)[C@@H]2CCCCCCC(=O)O)cc1` (single isomer, unassigned) [Peak 1, Mixture 1 acid]: the EC50 was 0.01 µM at human EP2 receptor [1] (read-out: Mean EC50), 0.00977 µM at human EP2 receptor [1] (setting [4]), 1.78 µM in assay [3] (read-out: Mean EC50) and 1.78 µM in assay [3] (setting [4]). The Ki on human EP3 receptor was 2 µM; on human EP2 receptor [2], 0.0794 µM.
In the case of `CCCCC[C@@H](O)c1ccc([C@H]2CCC(=O)[C@@H]2CCCCCCC(=O)O)cc1` (single isomer, unassigned) [Peak 1, Mixture 2 acid], the EC50 on human EP2 receptor [1] (read-out: Mean EC50) is 0.056 µM; in assay [3] (read-out: Mean EC50), 6.73 µM; in assay [3] (setting [4]) it was 6.73 µM. Besides, the Ki was 15.8 µM on human EP3 receptor and 0.126 µM on human EP2 receptor [2]. For the same compound, at human EP2 receptor [2] (comparison among the stereoisomers), the “selectivity for EP2 over other EP receptors (from table 5)” value was “most selective”.
